Values joined by “and” are separate entries in the source; they are usually repeats but may differ in a detail not shown here. Identical values can stand only once.
Tests used:
[1] = target: Human immunodeficiency virus type 1 protease (Human immunodeficiency virus 1, UniProt Q72874); assay: Inhibitory activity against HIV protease
[2] = test system: Human immunodeficiency virus 1; assay: Antiviral potency was assessed by measuring the effect on accumulation of viral RNA transcripts 3 days after infection of MT-2 cells with HIV-1 RF; assay type: functional, MT2
[3] = target: Human immunodeficiency virus type 1 protease (Human immunodeficiency virus 1) (UniProt Q72874); assay: Ability to increase whole-cell antiviral efficacy through better translation defined as the ratio between IC90 and Ki; assay type: functional
[4] = Human immunodeficiency virus 1, MT2, 72 h

Compound	Ki [1]	IC90 [2, 4]	Ratio [3]	IC90 [2]
O=C1N(Cc2ccccc2)[C@H](Cc2ccc3ccccc3c2)[C@H](O)[C@@H](O)[C@@H](Cc2ccc3ccccc3c2)N1Cc1ccccc1	9.8 nM	3300 nM	340	
Nc1ccc(C[C@@H]2[C@H](O)[C@@H](O)[C@@H](Cc3ccc(N)cc3)N(Cc3ccccc3)C(=O)N2Cc2ccccc2)cc1 [listing 1 of 3 here]			165 and 180	
CSCC[C@@H]1[C@H](O)[C@@H](O)[C@@H](CCSC)N(Cc2ccccc2)C(=O)N1Cc1ccccc1	1100 nM	> 10000 nM		
COc1cc(C[C@@H]2[C@H](O)[C@@H](O)[C@@H](Cc3cc(OC)cc(OC)c3)N(CC3CC3)C(=O)N2CC2CC2)cc(OC)c1	2.7 nM	380 nM	140	
O=C1N(CC2CC2)[C@H](Cc2cccs2)[C@H](O)[C@@H](O)[C@@H](Cc2cccs2)N1CC1CC1	9.1 nM	7800 nM	860	
CSc1cccc(C[C@@H]2[C@H](O)[C@@H](O)[C@@H](Cc3cccc(SC)c3)N(Cc3ccccc3)C(=O)N2Cc2ccccc2)c1	2.5 nM	4170 nM	1700	
CC(C)C[C@@H]1[C@H](O)[C@@H](O)[C@@H](CC(C)C)N(Cc2ccccc2)C(=O)N1Cc1ccccc1	1700 nM	> 10000 nM		
CC(C)C[C@@H]1[C@H](O)[C@@H](O)[C@@H](CC(C)C)N(Cc2ccc(CO)cc2)C(=O)N1Cc1ccc(CO)cc1	38 nM	> 10000 nM		
CN(C)c1cccc(C[C@@H]2[C@H](O)[C@@H](O)[C@@H](Cc3cccc(N(C)C)c3)N(Cc3ccccc3)C(=O)N2Cc2ccccc2)c1	4.3 nM	1200 nM	280	
O=C1N(Cc2ccccc2)[C@H](Cc2ccoc2)[C@H](O)[C@@H](O)[C@@H](Cc2ccoc2)N1Cc1ccccc1	8.4 nM	7800 nM	920	
COc1ccccc1C[C@@H]1[C@H](O)[C@@H](O)[C@@H](Cc2ccccc2OC)N(CC2CC2)C(=O)N1CC1CC1	65 nM	> 10000 nM		
O=C1N(Cc2ccccc2)[C@H](Cc2ccccc2O)[C@H](O)[C@@H](O)[C@@H](Cc2ccccc2O)N1Cc1ccccc1	35 nM	6500 nM	185	
CC(C)C[C@@H]1[C@H](O)[C@@H](O)[C@@H](CC(C)C)N(CC2CC2)C(=O)N1CC1CC1	86 nM	> 10000 nM		
COc1ccccc1C[C@@H]1[C@H](O)[C@@H](O)[C@@H](Cc2ccccc2OC)N(Cc2ccccc2)C(=O)N1Cc1ccccc1	60 nM	8800 nM	150	
C[C@@H]1[C@H](O)[C@@H](O)[C@@H](C)N(Cc2ccccc2)C(=O)N1Cc1ccccc1	5000 nM	> 10000 nM		
O=C1N(Cc2ccccc2)[C@H](CCc2ccccc2)[C@H](O)[C@@H](O)[C@@H](CCc2ccccc2)N1Cc1ccccc1	320 nM	> 10000 nM		
O=C1N(Cc2ccccc2)[C@H](Cc2c[nH]c3ccccc23)[C@H](O)[C@@H](O)[C@@H](Cc2c[nH]c3ccccc23)N1Cc1ccccc1	580 nM	> 10000 nM		
O=C1N(Cc2ccc(CO)cc2)[C@H](Cc2ccncc2)[C@H](O)[C@@H](O)[C@@H](Cc2ccncc2)N1Cc1ccc(CO)cc1	4.8 nM	> 10000 nM		
O=C1N(Cc2ccc(CO)cc2)[C@H](Cc2ccc(F)c(F)c2)[C@H](O)[C@@H](O)[C@@H](Cc2ccc(F)c(F)c2)N1Cc1ccc(CO)cc1	0.47 nM	36 nM	76	
COc1cccc(C[C@@H]2[C@H](O)[C@@H](O)[C@@H](Cc3cccc(OC)c3)N(Cc3ccc(CO)cc3)C(=O)N2Cc2ccc(CO)cc2)c1	0.11 nM	37 nM	340	
O=C1N(Cc2ccccc2)[C@H](Cc2ccncc2)[C@H](O)[C@@H](O)[C@@H](Cc2ccncc2)N1Cc1ccccc1	22 nM	5700 nM		
O=C1N(Cc2ccccc2)[C@H](Cc2ccc(O)cc2)[C@H](O)[C@@H](O)[C@@H](Cc2ccc(O)cc2)N1Cc1ccccc1	1.1 nM	185 nM	170	
O=C1N(Cc2ccc(CO)cc2)[C@H](Cc2ccccc2)[C@H](O)[C@@H](O)[C@@H](Cc2ccccc2)N1Cc1ccc(CO)cc1 [DMP-323]	0.27 nM	136 nM	500	
CC(C)c1ccc(C[C@@H]2[C@H](O)[C@@H](O)[C@@H](Cc3ccc(C(C)C)cc3)N(Cc3ccccc3)C(=O)N2Cc2ccccc2)cc1	1.1 nM	> 10000 nM		

Compound	Ki [1]	IC90 [2, 4]	Ratio [3]	IC90 [2]
O=C1N(Cc2ccc(CO)cc2)[C@H](Cc2ccc(F)cc2)[C@H](O)[C@@H](O)[C@@H](Cc2ccc(F)cc2)N1Cc1ccc(CO)cc1	0.44 nM	100 nM	230	
O=C1N(CC2CC2)[C@H](Cc2cccc(O)c2)[C@H](O)[C@@H](O)[C@@H](Cc2cccc(O)c2)N1CC1CC1	13 nM	2570 nM	200	
CSCC[C@@H]1[C@H](O)[C@@H](O)[C@@H](CCSC)N(Cc2ccc(CO)cc2)C(=O)N1Cc1ccc(CO)cc1	3900 nM	> 10000 nM		
COc1ccc(C[C@@H]2[C@H](O)[C@@H](O)[C@@H](Cc3ccc(OC)cc3)N(CC3CC3)C(=O)N2CC2CC2)cc1	2.9 nM	320 nM	110	
CSCC[C@@H]1[C@H](O)[C@@H](O)[C@@H](CCSC)N(CC2CC2)C(=O)N1CC1CC1		> 10000 nM		
COc1ccc(C[C@@H]2[C@H](O)[C@@H](O)[C@@H](Cc3ccc(OC)cc3)N(Cc3ccc(CO)cc3)C(=O)N2Cc2ccc(CO)cc2)cc1	0.24 nM	56 nM	230	
O=C1N(Cc2ccccc2)[C@H](Cc2ccccc2)[C@H](O)[C@@H](O)[C@@H](Cc2ccccc2)N1Cc1ccccc1	3.4 nM	790 nM	230	
O=C1N(Cc2ccccc2)[C@H](CC2CCCCC2)[C@H](O)[C@@H](O)[C@@H](CC2CCCCC2)N1Cc1ccccc1	28 nM	> 10000 nM		
COc1cccc(C[C@@H]2[C@H](O)[C@@H](O)[C@@H](Cc3cccc(OC)c3)N(CC3CC3)C(=O)N2CC2CC2)c1	0.87 nM	650 nM	750	
CSc1ccc(C[C@@H]2[C@H](O)[C@@H](O)[C@@H](Cc3ccc(SC)cc3)N(Cc3ccccc3)C(=O)N2Cc2ccccc2)cc1	3.4 nM	1300 nM	380	
O=C1N(CC2CC2)[C@H](Cc2ccc(F)cc2)[C@H](O)[C@@H](O)[C@@H](Cc2ccc(F)cc2)N1CC1CC1	5.8 nM	3200 nM	550	
O=C1N(CC2CC2)[C@H](Cc2ccc3ccccc3c2)[C@H](O)[C@@H](O)[C@@H](Cc2ccc3ccccc3c2)N1CC1CC1	4.3 nM	3400 nM	790	
CS(=O)(=O)c1ccc(C[C@@H]2[C@H](O)[C@@H](O)[C@@H](Cc3ccc(S(C)(=O)=O)cc3)N(Cc3ccccc3)C(=O)N2Cc2ccccc2)cc1	2.5 nM	470 nM	190	
O=C1N(CC2CC2)[C@H](Cc2ccccc2)[C@H](O)[C@@H](O)[C@@H](Cc2ccccc2)N1CC1CC1	1.9 nM	1840 nM	970	
Nc1ccc(C[C@@H]2[C@H](O)[C@@H](O)[C@@H](Cc3ccc(N)cc3)N(Cc3ccccc3)C(=O)N2Cc2ccccc2)cc1 [listing 2 of 3 here]	8.5 nM	1400 nM		
Nc1ccc(C[C@@H]2[C@H](O)[C@@H](O)[C@@H](Cc3ccc(N)cc3)N(Cc3ccccc3)C(=O)N2Cc2ccccc2)cc1 [listing 3 of 3 here]	7.1 nM			1300 nM
COc1cccc(C[C@@H]2[C@H](O)[C@@H](O)[C@@H](Cc3cccc(OC)c3)N(Cc3ccccc3)C(=O)N2Cc2ccccc2)c1	4.7 nM	350 nM	75	
Nc1cccc(C[C@@H]2[C@H](O)[C@@H](O)[C@@H](Cc3cccc(N)c3)N(Cc3ccccc3)C(=O)N2Cc2ccccc2)c1	2.8 nM	1300 nM	460	
CN(C)c1ccc(C[C@@H]2[C@H](O)[C@@H](O)[C@@H](Cc3ccc(N(C)C)cc3)N(Cc3ccccc3)C(=O)N2Cc2ccccc2)cc1	46 nM	2700 nM	60	
O=C1N(Cc2ccc(CO)cc2)[C@H](CC2CCCCC2)[C@H](O)[C@@H](O)[C@@H](CC2CCCCC2)N1Cc1ccc(CO)cc1	32 nM	> 10000 nM		
Cc1ccc(C)n1-c1cccc(C[C@@H]2[C@H](O)[C@@H](O)[C@@H](Cc3cccc(-n4c(C)ccc4C)c3)N(Cc3ccccc3)C(=O)N2Cc2ccccc2)c1	160 nM	> 10000 nM		
CC(C)[C@@H]1[C@H](O)[C@@H](O)[C@@H](C(C)C)N(CC2CC2)C(=O)N1CC1CC1		> 10000 nM		
O=C1N(Cc2ccccc2)[C@H](Cc2ccc3c(c2)OCO3)[C@H](O)[C@@H](O)[C@@H](Cc2ccc3c(c2)OCO3)N1Cc1ccccc1	1.3 nM	500 nM	385	
COc1ccc(C[C@@H]2[C@H](O)[C@@H](O)[C@@H](Cc3ccc(OC)cc3)N(Cc3ccccc3)C(=O)N2Cc2ccccc2)cc1	8.6 nM	600 nM	70	

From ChEMBL document CHEMBL1129785, “Preparation and structure-activity relationship of novel P1/P1'-substituted cyclic urea-based human immunodeficiency virus type-1 protease inhibitors” (J Med Chem, 1996)
